Reference: patent US5079261A, “Use of lipoxin A4 and its derivatives as antagonists for slow-reacting substances of anaphylaxis” (Brigham and Women's Hospital, priority 1989, dated 1992)

Key:
[1] = target: T1, mesangial cell LTD4 receptor (Rattus norvegicus, UniProt Q924T8); conditions: 10 nM [3H]-LTD4
T1 sequence (Q924T8 1-339): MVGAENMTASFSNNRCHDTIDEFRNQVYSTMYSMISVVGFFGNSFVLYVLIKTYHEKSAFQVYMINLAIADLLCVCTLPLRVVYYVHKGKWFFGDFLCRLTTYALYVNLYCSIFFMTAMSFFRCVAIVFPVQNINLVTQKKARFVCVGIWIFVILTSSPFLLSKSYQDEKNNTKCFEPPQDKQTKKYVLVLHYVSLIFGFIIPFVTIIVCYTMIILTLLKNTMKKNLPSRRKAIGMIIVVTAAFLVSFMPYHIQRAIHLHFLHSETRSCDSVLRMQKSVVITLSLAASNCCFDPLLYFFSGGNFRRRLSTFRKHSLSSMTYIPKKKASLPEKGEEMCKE
Procedure: Mesangial Cell Culture: Rat mesangial cells were isolated and cultured as described previously (Harris, R. C., et al., J. Clin. Invest. 82:1028-1039(1988). Briefly, kidneys were exicesed from two young Sprague-Dawly rats under sterile conditions, and the cortices removed, minced, and washed several times in Hank's Balanced Salt Solution, containing 10 mM HEPES pH 7.4, amphotericin (0.25 μg/ml), and gentamicin (50 μg/ml). The tissue was then passed through consecutive sterilized stainless mesh filters with pore sizes of 212 μm, 150 μm, and then onto the final mesh of 75 μm. The isolated glomeruli were harvested from the surface of the 75 μm. The isolated glomeruli were harvested from the surface of the 75 μm filter and washed twisce with the Hank's Media. The glomeruli were suspended in RPMI 1640 Medium with 15% Fetal Bovine Serum (Givco), penicillin (100 μ/ml) and streptomycin (100 μg/ml) (Gibco), plated into 100 mm cell culture petri dishes, and incubated at 37° C. in a humidified atmosphere of 95% air and 5% air and 5% CO2. Mesangial cell colonies were subcultured in 60 mm culture dishes, and experiments were carried out in cells from passages 2 to 12. […] Cells were routinely grown in RPMI-1640, supplemented with 20% fetal calf serum, penicillin 100 μ/ml, and streptomycin 100 μg/ml.
Binding studies were routinely performed at 4° C. […] The cells were then dissolved with 1.0 ml of 1.0 N NaOH, neutralized with HCl, dissolved in 10 ml of Aquasol (New England Nuclear, Boston, MA), and the bound radioactivity was determined using a scintillation counter (Beckman Instruments). […] Cell density was determined by counting cells from replicate wells, using a Coulter Counter ZBi (Coulter Electronics, Inc., Hialeah, Fla.).

[2] = system: guinea pig ileum or trachea; conditions: cited from earlier work
vascular smooth muscle = conditions: cited from earlier work
hamster cheek pouch = conditions: topical; cited from earlier work
renal arterioles = conditions: renal artery, anesthetized rats; cited from earlier work

CCCCC[C@H](O)/C=C/C=C\C=C\C=C\[C@@H](O)[C@@H](O)CCCC(=O)O [LXA4, (5S,6R,15S)-5,6,15-trihydroxy-7,9,13-trans-11-cis-eicosatetraenoic acid]
Competition for [3H]-LTD4 binding compared with LTB4 [1]: several-fold greater than that of the non-peptidoleukotriene, LTB4 | Competition for [3H]-LTD4 binding compared with LTE4 [1]: equipotent to that of LTE4 | Contraction of ileum or trachea [2]: not guinea pig ileum or trachea | Concentration that relaxes (dilates) vascular smooth muscle (vascular smooth muscle): less than 1 μM | Arteriolar dilation (hamster cheek pouch): pronounced arteriolar dilation | Venular diameters (hamster cheek pouch): does not change venular diameters | Glomerular capillary ultrafiltration coefficient (Kf) (renal arterioles): reduces | Renal arteriole response (renal arterioles): elicits vasodilator responses
